Source: US10501805B2, “Methods for determining responsiveness to MEK/ERK inhibitors” (CROWN BIOSCIENCE, INC. (TAICANG), priority 2014, dated 2019)

Columns and labels:
Assay in all cases: CellTiter-Glo cell viability, IC50 determination
Type in all cases: cell-based
KYSE150 = settings: Homo sapiens, KYSE-150, 72 h; KYSE150 cell line; 3-day CTG assay; read-out: Absolute IC50
Procedure: (§1) All the cells will be cultured in the media supplemented with 10% FBS except for which are marked specially, in the temperature of 37° C., 5% CO2 and 95% humidity.
(§2) Cell viability is assayed by using CellTiter-Glo® Luminescent Cell Viability Assay Kit (Cat. No.: G7572, Promega. Store at −20° C.). To prepare the CellTiter_Glo Reagent, the CellTiter-Glo Buffer was thawed and equilibrated to room temperature prior to use. For convenience the CellTiter-Glo Buffer may be thawed and stored at room temperature for up to 48 hours prior to use. The lyophilized CellTiter-Glo Substrate is equilibrated to room temperature prior to use. The appropriate volume (100 ml) of CellTiter-Glo Buffer is transferred into the amber bottle containing CellTiter-Glo Substrate to reconstitute the lyophilized enzyme/substrate mixture, which forms the CellTiter-Glo Reagent. In certain cases, the entire liquid volume of the CellTiter-Glo Buffer bottle may be added to the CellTiter-Glo Substrate vial. Mix by gently vortexing, swirling or by inverting the contents to obtain a homogeneous solution. The CellTiter-Glo Substrate should go into solution easily in less than one minute.
(§3) The day before the experiment (Day −1), cells were dissociated during the logarithmic growth period with Cell Disassociation Buffer (Gibco 13151-014) and mixed with appropriate cell media and centrifuge at 1000 rpm for 3 minutes. The cells were re-suspended and counted using Countstar before adjusting cell concentrations to optimized density (i.e. 4.44×10^4 cells/ml) with respective culture medium listed in Table 1 for 3-day CTG assay (The cell density was optimized before actual study; cell density used in the test may vary for different cell lines). 90 μl cell suspensions were added to two 96-well plates (plates A and B) with the final cell density of 4×10^3 cells/well for 3-day CTG assay (the cell density was optimized before actual study; cell density used in the test may vary for different cell lines). The plate A and B group were incubated for overnight in humidified incubator at 37° C. with 5% CO2.
(§4) On Day 0, for plate A group, 10 μl culture medium was added to each well for T0 reading. CellTiter-Glo® Reagent was added at equal volume of cell culture medium present in each well (e.g., add 100 μl of reagent to 100 μl of medium containing cells for a 96-well plate). Contents were mixed for 2 minutes on an orbital shaker to facilitate cell lysis. The plate was allowed to incubate at room temperature for 10 minutes to stabilize luminescent signal. Backseal black sticker was added to the bottom of each plate. Luminescence was recorded using EnVision Multi Label Reader. This formed the basis for T0 value.
(§5) On Day 0, the test articles and positive controls were dissolved at the concentration indicated at Test Article Dilution map. 100× solution in PBS was prepared and then diluted with appropriate culture media (1:10) into 10×working solutions. 10 μl (10×) drug solutions were dispensed in each well (triplicate for each drug concentration) of the plate B group according to plate inoculation map. The test plates were incubated for […] in the humidified incubator at 37° with 5% CO2.
(§6) On Day 3, CellTiter-Glo® Reagent was added at equal volume of cell culture medium present in each well (e.g., add 100 μl of reagent to 100 μl of medium containing cells for a 96-well plate). Contents were mixed for 2 minutes on an orbital shaker to induce cell lysis. The plate was allowed to incubate at room temperature for 10 minutes to stabilize luminescent signal. Backseal black sticker was placed to the bottom of each plate. Luminescence was recorded using EnVision Multi Label Reader.
(§7) In order to calculate IC50s, a dose-response curve was fitted using a nonlinear regression model with a sigmoidal dose response. The formula for calculating surviving rate was shown below; Absolute IC50 is calculated where Y axis set at 50% using GraphPad Prism 5.0. Software. […]

HCT116 = settings: Homo sapiens, HCT-116, 72 h; HCT116 cell line; 3-day CTG assay; read-out: Absolute IC50
Procedure: as §1, §2, §3, §4, §5, §6, §7

KM12L4 = settings: KM 12L4, 72 h; KM12L4 cell line; 3-day CTG assay; read-out: Absolute IC50
Procedure: as §1, §2, §3, §4, §5, §6, §7

Sk-Hep-1 = settings: Homo sapiens, SK-HEP1, 72 h; Sk-Hep-1 cell line; 3-day CTG assay; read-out: Absolute IC50
Procedure: as §1, §2, §3, §4, §5, §6, §7

LS513 = settings: Homo sapiens, LS-513, 72 h; LS513 cell line; 3-day CTG assay; read-out: Absolute IC50
Procedure: as §1, §2, §3, §4, §5, §6, §7

MIAPaCa2 = settings: Homo sapiens, MIA PaCa-2, 72 h; MIAPaCa2 cell line; 3-day CTG assay; read-out: Absolute IC50
Procedure: as §1, §2, §3, §4, §5, §6, §7

PL45 = settings: 72 h; PL45 cell line; 3-day CTG assay; read-out: Absolute IC50
Procedure: as §1, §2, §3, §4, §5, §6, §7

Sk-Mel-5 = settings: Homo sapiens, 72 h; Sk-Mel-5 cell line; 3-day CTG assay; read-out: Absolute IC50
Procedure: as §1, §2, §3, §4, §5, §6, §7

BxPc-3 = settings: Homo sapiens, 72 h; BxPc-3 cell line; 3-day CTG assay; read-out: Absolute IC50
Procedure: as §1, §2, §3, §4, §5, §6, §7

SNU-1 = settings: Homo sapiens, SNU1, 72 h; SNU-1 cell line; 3-day CTG assay; read-out: Absolute IC50
Procedure: as §1, §2, §3, §4, §5, §6, §7

A549 = settings: Homo sapiens, 72 h; A549 cell line; 3-day CTG assay; read-out: Absolute IC50
Procedure: as §1, §2, §3, §4, §5, §6, §7

HM-7 = settings: 72 h; HM-7 cell line; 3-day CTG assay; read-out: Absolute IC50
Procedure: as §1, §2, §3, §4, §5, §6, §7

Calu6 = settings: Homo sapiens, Calu-6, 72 h; Calu6 cell line; 3-day CTG assay; read-out: Absolute IC50
Procedure: as §1, §2, §3, §4, §5, §6, §7

NCI-H358 = settings: Homo sapiens, 72 h; NCI-H358 cell line; 3-day CTG assay; read-out: Absolute IC50
Procedure: as §1, §2, §3, §4, §5, §6, §7

RKO = settings: Homo sapiens, 72 h; RKO cell line; 3-day CTG assay; read-out: Absolute IC50
Procedure: as §1, §2, §3, §4, §5, §6, §7

NCI-H1666 = settings: Homo sapiens, 72 h; NCI-H1666 cell line; 3-day CTG assay; read-out: Absolute IC50
Procedure: as §1, §2, §3, §4, §5, §6, §7

IC50 (HCT116)	IC50 (MIAPaCa2)	IC50 (BxPc-3)	IC50 (SNU-1)	IC50 (A549)	IC50 (Calu6)	IC50 (NCI-H358)	IC50 (NCI-H1666)	Compound	IC50 (KYSE150)	IC50 (KM12L4)	IC50 (Sk-Hep-1)	IC50 (LS513)	IC50 (PL45)	IC50 (Sk-Mel-5)	IC50 (HM-7)	IC50 (RKO)
450 nM	210 nM	320 nM	640 nM	1780 nM	560 nM	520 nM	920 nM	O=C(Nc1ccc2[nH]nc(-c3ccncc3)c2c1)[C@@H]1CCN(CC(=O)N2CCN(c3ccc(-c4ncccn4)cc3)CC2)C1 [SCH772984, (R)-1-(2-oxo-2-(4-(4-(pyrimidin-2-yl)phenyl)piperazin-1-yl)ethyl)-N-(3-(pyridin-4-yl)-1H-indazol-5-yl)pyrrolidine-3-carboxamide]	1.72 µM	360 nM	5.29 µM	780 nM	660 nM	200 nM	790 nM	17.5 µM
40 nM	30 nM	30 nM	100 nM	240 nM	140 nM	50 nM	130 nM	CC(=O)Nc1cccc(-n2c(=O)n(C3CC3)c(=O)c3c(Nc4ccc(I)cc4F)n(C)c(=O)c(C)c32)c1 [Trametinib, N-(3-{3-Cyclopropyl-5-[(2-fluoro-4-iodophenyl)amino]-6,8-dimethyl-2,4,7-trioxo-3,4,6,7-tetrahydropyrido[4,3-d]pyrimidin-1(2H)-yl}phenyl)acetamide]	5.28 µM	10 nM	29.1 µM	10 nM	120 nM	10 nM	390 nM	6.7 µM
